Measurements published in patent US20250282895A1, “PHARMACEUTICAL COMPOSITIONS OF CHEMOTHERAPEUTIC AGENTS BASED ON BETA-S[…]-AMINO ACID DERIVATIVES” (priority 2021, published 2025).
Where a name gives a salt, the structure may show the parent alone.

Test: Comparative stability, Formulation 3 (based on Evomela, SBE6.5-β-CD)
Assay type: physicochemical
Procedure: The stability of Compound (1c) either as the HCl salt or as the free base was compared to the stability of melphalan HCl and/or bendamustine HCl in various pharmaceutical formulations and at different concentrations and at temperatures of 0° C. or 25° C.
The stability of the compounds in the pharmaceutical formulations was determined at concentrations within the range from 0.4 mg/mL to 0.5 mg/mL, from 0.9 mg/mL to 1.1 mg/mL, and from 1.8 mg/mL to 2.1 mg/mL.
The amount of the active pharmaceutical ingredient (API) (Compound (1c), melphalan or bendamustine) in the pharmaceutical formulations at different times during storage was determined using HPLC/UV as described in detail for Example 4 and Example 5.
Evomela® is an injectable formulation of melphalan hydrochloride, 4-[bis(2-chloroethyl)amino]-L-phenylalanine hydrochloride, approved by the FDA. Evomela® is supplied as a sterile white to off-white lyophilized powder in a single-dose vial for intravenous use. Each vial containing 50 mg melphalan free base equivalent to 56 mg melphalan hydrochloride and 2,700 mg betadex sulfobutyl ether (SBE6.5-β-CD; sulfobutyl ether β-cyclodextrin sodium) sodium, NF. Normal saline solution (0.9% Sodium Chloride Injection, USP) (8.6 mL as directed) is used to reconstitute Evomela® to a total of 10 mL having a 5 mg/mL nominal concentration of melphalan. The required volume of Evomela® needed for a patient dose is withdrawn from the vial(s) and added to the appropriate volume of 0.9% Sodium Chloride Injection, USP, to a final nominal concentration of 0.45 mg/mL of melphalan. This solution is then infused via an injection port or central venous catheter.
A series of 12 mL glass vials each containing 5.5 mg (0.0165 mmol of Compound (1c) free base and 270 mg of SBE6.5-β-CD, Captisol®) were prepared as described in Example 4.
The cyclodextrin derivative/Compound (1c) free base guest-host inclusion complex was reconstituted by dissolving the guest-host inclusion complex in 0.86 mL of 0.9% saline to provide 1.0 mL of a solution having a nominal concentration of 5.5 mg/mL of Compound (1c) free base.
(§1) A 1.0 mL aliquot of this solution was diluted with 10.0 mL of 0.9% saline, and the pH adjusted with 5 μL of a saturated aqueous NaHCO3 solution to provide 11.0 mL of a clear, colorless solution having a nominal concentration of 0.50 mg/mL of Compound (1c) from Compound (1c) free base and a pH from 5.8 to 6.1.
as §1, with “4.5” for “10.0”, “5.5” for “11.0”, “1.0” for “0.50”, “of about” for “from 5.8 to”
as §1, with “1.75” for “10.0”, “2.75” for “11.0”, “2.0” for “0.50”, “of about” for “from 5.8 to”
A series of 12 mL glass vials each containing 6.1 mg (0.0165 mmol of Compound (1c) mono-hydrochloride salt (corresponding to 5.5 mg of Compound (1c) free base) and 270 mg of SBE6.5-β-CD, Captisol®) were prepared as described in Example 5.
The cyclodextrin derivative/Compound (1c) mono-HCl salt guest-host inclusion complex was reconstituted by dissolving the guest-host inclusion complex in 0.86 mL of 0.9% saline to provide 1.0 mL of a solution having a nominal concentration of 6.1 mg/mL of Compound (1c) mono-HCl salt (corresponding to a nominal concentration of 5.5 mg/mL of the Compound (1c) free base).
as §1, with “0.5” for “1.0”, “5.0” for “10.0”, “5.5” for “11.0”, “mono-hydrochloride” for “free base”, “5.3” for “5.8”, “5.5. […]” for “6.1.”

[1] = Formulation 3, 0° C., 0.5 hours, 0.4-0.5 mg/mL, pH 5.8-6.1 (melphalan), pH 5-6 (Compound (1c)•HCl)
[2] = Formulation 3, 0° C., 2.0 hours, 0.4-0.5 mg/mL, pH 5.8-6.1 (melphalan), pH 5-6 (Compound (1c)•HCl)

Row | Compound | % API [1] [%] | % API [2] [%] | % API (Formulation 3, 25° C., 0.5 hours, 0.4-0.5 mg/mL, pH 5.8-6.1 (melphalan), pH 5-6 (Compound (1c)•HCl)) [%] | % API (Formulation 3, 25° C., 2.0 hours, 0.4-0.5 mg/mL, pH 5.8-6.1 (melphalan), pH 5-6 (Compound (1c)•HCl)) [%] | % API (Formulation 3, 0° C., 0.5 hours, 0.9-1.1 mg/mL, pH 5-6) [%] | % API (Formulation 3, 0° C., 0.5 hours, 1.8-2.1 mg/mL, pH 5-6) [%] | % API (Formulation 3, 0° C., 2.0 hours, 0.9-1.1 mg/mL, pH 5-6) [%] | % API (Formulation 3, 0° C., 2.0 hours, 1.8-2.1 mg/mL, pH 5-6) [%] | % API (Formulation 3, 25° C., 0.5 hours, 0.4-0.5 mg/mL, pH 5.8-6.1 (melphalan), pH 5-6 (Compound (1c)•HCl), mono hydrochloride salt) [%] | % API (Formulation 3, 25° C., 0.5 hours, 0.9-1.1 mg/mL, pH 5-6 (Compound (1c)•HCl), mono hydrochloride salt) [%] | % API (Formulation 3, 25° C., 0.5 hours, 1.8-2.1 mg/mL, pH 5-6 (Compound (1c)•HCl)) [%] | % API (Formulation 3, 25° C., 2.0 hours, 0.4-0.5 mg/mL, pH 5.8-6.1 (melphalan), pH 5-6 (Compound (1c)•HCl), mono hydrochloride salt) [%] | % API (Formulation 3, 25° C., 2.0 hours, 0.9-1.1 mg/mL, pH 5-6 (Compound (1c)•HCl), mono hydrochloride salt) [%] | % API (Formulation 3, 25° C., 2.0 hours, 1.8-2.1 mg/mL, pH 5-6 (Compound (1c)•HCl), mono hydrochloride salt) [%]
1 | Cl.N[C@@H](Cc1ccc(N(CCCl)CCCl)cc1)C(=O)O [Melphalan•HCl, 4-[bis(2-chloroethyl)amino]-L-phenylalanine hydrochloride, reference compound] | 97 | 92 | 97 | 92 |  |  |  |  |  |  |  |  |  | 
2 | Cc1ccc(N(CCCl)CCCl)cc1C[C@H](N)CC(=O)O [Compound (1c)•HCl, (S)-3-amino-4-(5-(bis(2-chloroethyl)amino)-2-methylphenyl) butanoic acid mono hydrochloride salt] | 97 | 97 |  |  | 97 | 100 | 91 | 99 | 97 | 97 | 100 | 97 | 91 | 99
